# Test results taken from publication PMC10302753, “Natural-Product-Inspired Microwave-Assisted Synthesis of Novel Spirooxindoles as Antileishmanial Agents: Synthesis, Stereochemical Assignment, Bioevaluation, SAR, and Molecular Docking Studies” (Molecules, 2023).
# What was measured:
# LdTopIB = tested on: LdTopIB; design: method as in PMID 24433962, doi:10.1016/j.molstruc.2019.03.032, PMID 34311084, PMID 36444862; details: Figure 2; cited from earlier work
# [1] = tested on: promastigotes and the amastigotes forms of Leishmania (L.) species; design: method as in PMID 24433962, doi:10.1016/j.molstruc.2019.03.032, PMID 34311084, PMID 36444862; details: Figure 2; cited from earlier work
SMILES,melting point [°C],IC50 (LdTopIB) [µM],EC50 [1] [µg/mL],IC50 [1] [µM]
COC(=O)C1CC2CCCN2C12C(=O)N(Cc1ccccc1)c1ccccc12 (centres unmarked) [compound 15],138 to 140,3.29,,
Cc1ccc(C(CC(=O)c2ccccc2)C2C(=O)Nc3ccccc32)cc1 (centres unmarked) [compound 16],112 to 114,,16.2,
O=C(c1ccc(F)cc1)C1C(c2ccc(Cl)cc2Cl)C2CSCN2C12C(=O)Nc1ccccc12 (centres unmarked) [compound 17],103 to 105,,,39.8 ± 0.43
O=C1NC(=O)C2(CC(c3ccccc3)N(Cc3ccccc3)C(c3ccccc3)C2)N1c1ccccc1 (centres unmarked) [compound 19],142 to 144,,,0.89
